From patent publication US20050124591A1, “Use of vitamin Ds to treat kidney disease” (priority 2003, published 2005)

Assays:
24(OH)ase = test: effect of drugs on the expression of 24(OH)ase; assay type: cell-based; conditions: compared with calcitriol
Procedure: Two observations may be noted in these studies: (1) 100% inhibition of growth was never achieved even at 1 μM of any of the test compound. Confocal microscopy studies confirm that, although these drugs are potent in inducing the translocation of VDR from cytoplasm to nucleus, not all cells respond to VDRAs even after 2 h of exposure, which may explain the <100% inhibition.

[1] = test system: CKD Stage 3 and 4 patients; test: dipstick proteinuria in three randomized, double-blind, placebo-controlled studies in CKD Stage 3 and 4 patients with SHPT; assay type: in vivo, human
Procedure: Paricalcitol capsule, a synthetic 3rd generation vitamin D analog, and selective vitamin receptor activator (SVDRA) was evaluated in three randomized, double-blind, placebo-controlled, multicenter studies in CKD Stage 3 and 4 patients with SHPT. Two studies dosed three times a week(TIW), no more often than every other day, and 1 study was conducted with once a day dosing regimen (QD). Data from these three studies were combined and analyzed for the following safety parameters: • Calcium and phosphorus metabolism, kidney function parameters and adverse event profile • Changes in dipstick proteinuria Method: • Randomized, double-blind, placebo controlled, multicenter studies with a Pre-treatment/Washout Phase of 1-4 weeks and a Treatment Phase of 24 weeks • Patients were randomized 1:1 to paricalcitol or placebo • Major entry criteria: • Age≧18 years • CKD patients with eGFR (MDRD formula) 15-60 mL/min/1.73 m^2 • Average of the last 2 iPTH values≧150 pg/mL, all values≧120 pg/mL (iPTH measured by Nichols first generation intact PTH assay) • 2 consecutive serum calcium values between 8.0-10.0 mg/dL, and 2 consecutive serum phosphorus values≦5.2 mg/dL • Spot urinary calcium-to-creatinine ratio<0.2 • Not taking maintenance calcitonin, bisphosphonates or drugs that may affect calcium or bone metabolism. • Not taking glucocorticoids for >14 days within the last 6 months. Concurrent Phosphate Binder Usage
Initial Dose: 2 or 4 mcg for TIW regimen and 1 or 2 mcg for QD regimen
Dose Increment: 2 mcg for TIW regimen and 1 mcg for QD regimen
Dose increases every 4 weeks, dose decreases every 2 weeks or sooner
Changes in proteinuria, measured by automated semiquantitative dipstick testing, were evaluated in 195 CKD Stage 3 and 4 patients. Among them, 43.6% (41/94) of paricalcitol patients and 48.5% (49/101) of placebo patients were diabetic.

renin gene promoter = test: renin promoter-luciferase reporter assay; assay type: cell-based; conditions: FIG. 2
Text: (§1) Using an in vitro cell culture system, the activity of paricalcitol to suppress renin gene expression was examined using previously published techniques (1,25-Dihydroxyvitamin D3 is a negative endocrine regulator of the renin-angiotensin system, J. Clin. Invest., July 2002). […] This inhibitory effect is confirmed by renin promoter-luciferase reporter assays, which examine the activity of paricalcitol to suppress renin gene transcription.

PAI-1 = test: Western blot of PAI-1 in primary culture of human coronary artery smooth muscle cells; assay type: cell-based; conditions: 24 hr at 37° C.
renin mRNA expression = test: Northern blot analysis of renin mRNA expression in As4.1-hVDR cells; assay type: cell-based
Text: as §1

renin gene expression = conditions: in vitro and in vivo studies, recently found; cited from earlier work

SMILES: C[C@H](/C=C/[C@H](C)C(C)(C)O)[C@H]1CC[C@H]2/C(=C/C=C3C[C@@H](O)C[C@H](O)C3)CCC[C@]12C [paricalcitol]
- potency on stimulating the expression of 24(OH)ase (24(OH)ase): less potent than calcitriol
- patients who had a decrease in proteinuria ([1]; patients on ACEI/ARB therapy with proteinuria at baseline (22/42), placebo 27% (11/41), p=0.025): 52%
- patients who experienced an increase in proteinuria, baseline to final visit ([1]; patients who could have an increase in proteinuria from baseline (18/76), placebo 29% (23/77), p=0.466): 24%
- patients who experienced a reduction in proteinuria, baseline to final visit ([1]; patients who had proteinuria at baseline (29/57), placebo 25% (15/61), p=0.004, 24 weeks treatment): 51%
- suppression of the activity of the renin gene promoter compared with calcitriol (renin gene promoter): at least as potent as calcitriol
- PAI-1 level (PAI-1): able to decrease PAI-1 level
- potency in reducing the PAI-1 level (PAI-1): equally potent
- renin mRNA expression (renin mRNA expression; FIG. 1): dose-dependently inhibits renin mRNA expression
- renin-inhibiting activity compared with calcitriol (renin mRNA expression; FIGS. 1A and B): a bit more potent than calcitriol

SMILES: C=C1/C(=C\C=C2/CCC[C@]3(C)[C@@H]([C@H](C)CCCC(C)(C)O)CC[C@@H]23)C[C@@H](O)C[C@@H]1O [calcitriol]
- renin gene expression (renin gene expression): able to inhibit renin gene expression
- potency in reducing the PAI-1 level (PAI-1): equally potent
